The structures appear in SMILES notation.

The test system of assay [1] is KP-4 (Pancreatic Carcinoma). The assay can be described thus: Bliss excess, mean over the matrix (fraction); higher = more synergy. The essentials:
(§1)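 After 24 hours at 37°C and 5% CO2 in 1536-well plates, cells in DMEM/F12 or RPMI plus 10% FBS received two-drug dose matrices for 72 hours. Viability came from CellTiter-Glo 2.0 luminescence and was scaled as inhibition, anchored at 0 by vehicle wells and at 1 by blank wells. Combination Emax is taken as the second-highest inhibition in the matrix, and Bliss excess as the observed combination effect less EA + EB − EA·EB, with EA and EB the single-agent effects.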

In assay [2] the test system is COR-L88 (Small Cell Lung Carcinoma). The assay can be described thus: combination Emax (second highest fraction inhibited in the dose matrix, 72 h); higher = more inhibition; extreme values may be limits of the assay. The essentials:
as §1

For assay [3], the system named is RCC-JW (Kidney Carcinoma). The assay is described as above. The essentials: as §1
Assay [4] has as its system SKG-IIIa (Cervical Carcinoma). Described as above. The essentials: as §1
For assay [5], the system named is MDA-MB-415 (Breast Carcinoma). The assay is described as above. A digest of the protocol:
as §1

Assay [6] has as its system SK-CO-1 (Colorectal Carcinoma). The assay is described as above. The essentials: as §1
In assay [7] the test system is IA-LM (Non-Small Cell Lung Carcinoma). The assay is described as above. The essentials: as §1
In assay [8] the test system is CPC-N (Small Cell Lung Carcinoma). The assay is described as above. A digest of the protocol:
as §1

Another assay deals with GAK (Melanoma). The assay is described as above. A digest of the protocol:
as §1

In assay [9] the test system is MS-1 (Small Cell Lung Carcinoma). The assay is described as above. A digest of the protocol:
as §1

For assay [10], the system named is HPAF-II (Pancreatic Carcinoma). The description is as above. The essentials: as §1
Assay [11] deals with C-33-A (Cervical Carcinoma). Described as above. A digest of the protocol:
as §1

Assay [12] has as its system KP-4 (Pancreatic Carcinoma). Described as above. A digest of the protocol: as §1
The subject of the next assay is SK-N-SH (Neuroblastoma). The assay is described as above. A digest of the protocol:
as §1
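Wherever Bliss excess, mean over the matrix is given: after 72 h of two-drug dosing.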

Consider `Cc1cc2ncnn2cc1Nc1ncc2c(n1)n(C1CCOCC1)c(=O)n2C` [AZD7648] + COc1cc([C@@H]2c3cc4c(cc3[C@@H](O[C@@H]3O[C@@H]5CO[C@@H](C)O[C@H]5[C@H](O)[C@H]3O)[C@H]3COC(=O)[C@H]23)OCO4)cc(OC)c1O [Etoposide] (first compound max 10 µM, 7x7, partner max 10 µM), for which the Bliss excess in assay [1] amounted to 0.122. Besides, the “combination Emax” value in assay [2] was 0.36; in assay [3], 0.56; in [4], 0.551; in [5] it was 0.483; in assay [6] it was 0.879; in assay [7], 0.28. Also, the “combination Emax” value in assay [8] stood at 0.906; in the assay with GAK (Melanoma), 0.525; in assay [9], 0.842; in assay [10], 0.199; in assay [11], 0.945; in [12] it was 0.878. Also, in the assay with SK-N-SH (Neuroblastoma), the “combination Emax” value was found to be 0.945.
Consider `C[C@@H](Oc1cc(-c2cnn(C3CCNCC3)c2)cnc1N)c1c(Cl)ccc(F)c1Cl` [Crizotinib] + CC1=C(C(=CC=C1)Cl)NC(=O)C2=CN=C(S2)NC3=CC(=NC(=N3)C)N4CCN(CC4)CCO [Dasatinib] (first compound max 10 µM, 7x7, partner max 2 µM), for which the Bliss excess in [1] was found to be 0.0493. Besides, the “combination Emax” value in assay [2] amounted to 0.435; in assay [3], 0.851; in assay [4] it was 0.734; in [5], 0.323; in assay [6], 0.954; in assay [7], 0.601. Moreover, the “combination Emax” value in assay [8] turned out to be 0.584; in the assay on GAK (Melanoma), 0.694; in assay [9], 0.686; in [10], 0.431; in assay [11] it was 0.582; in assay [12] it was 0.848. Moreover, the “combination Emax” value in the assay on SK-N-SH (Neuroblastoma) was determined as 0.859.
Consider `N#Cc1cnc(Nc2cc(NC[C@H]3CNCCO3)c(C(F)(F)F)cn2)cn1` [SRA737] + O=c1[nH]cc(F)c(=O)[nH]1 [5-Fluorouracil] (first compound max 10 µM, 7x7, partner max 20 µM), for which the Bliss excess in assay [1] was 0.0334. Moreover, the “combination Emax” value in assay [2] is 0.435; in [3], 0.21; in [4], 0.34; in assay [5], 0.381; in assay [6] it was 0.654; in [7], 0.0378. In addition, the “combination Emax” value was found to be 0.861 in assay [8]; 0.448 in the assay on GAK (Melanoma); 0.584 in assay [9]; 0.436 in assay [10]; 0.478 in assay [11]; 0.376 in [12]. Besides, the “combination Emax” value with SK-N-SH (Neuroblastoma) is 0.57.
`O=C(c1cc(Cc2n[nH]c(=O)c3ccccc23)ccc1F)N1CCN(C(=O)C2CC2)CC1` [Olaparib] + COc1nnc2ccc(N3CCC(c4ccc(OCCN5CCN(C)C(=O)[C@H]5C)cc4)CC3)nn12 [AZD5153] (first compound max 10 µM, 7x7, partner max 1 µM): the Bliss excess in [1] was -0.0266. Besides, the “combination Emax” value amounted to 0.214 in [2]; 0.38 in assay [3]; 0.385 in assay [4]; 0.362 in assay [5]; 0.7 in assay [6]; 0.352 in assay [7]. For the same compound, the “combination Emax” value in assay [8] turned out to be 0.369; with GAK (Melanoma), 0.451; in [9], 0.757; in assay [10] it was 0.334; in assay [11] it was 0.484; in [12], 0.532. The “combination Emax” value in the assay on SK-N-SH (Neuroblastoma) was determined as 0.428.
Consider `N#Cc1cnc(Nc2cc(NC[C@H]3CNCCO3)c(C(F)(F)F)cn2)cn1` [SRA737] + C=CCn1c(=O)c2cnc(Nc3ccc(N4CCN(C)CC4)cc3)nc2n1-c1cccc(C(C)(C)O)n1 [AZD1775] (first compound max 10 µM, partner max 1 µM), for which the Bliss excess in [1] came to 0.0595. For the same compound, the “combination Emax” value in [2] was 0.685; in assay [3] it was 0.456; in assay [4] it was 0.465; in assay [5], 0.318; in [6] it was 0.631; in assay [7], 0.311. Also, the “combination Emax” value with GAK (Melanoma) came out at 0.841; in assay [9], 0.926; in assay [10], 0.495; in [11] it was 0.97; in assay [12] it was 0.597; in the assay with SK-N-SH (Neuroblastoma) it was 0.804.
Turning to `CN(CCO)CC[C@H](CSc1ccccc1)Nc1ccc(S(=O)(=O)NC(=O)c2ccc(N3CCC([C@@H](O)c4ccccc4-c4ccc(Cl)cc4)CC3)cc2)cc1S(=O)(=O)C(F)(F)F` [AZD4320] + CS(=O)(=O)CCNCc1ccc(-c2ccc3ncnc(Nc4ccc(OCc5cccc(F)c5)c(Cl)c4)c3c2)o1 [Lapatinib] (first compound max 1 µM, 7x7, partner max 10 µM), the Bliss excess in [1] was -0.0251. For the same compound, the “combination Emax” value in assay [2] was 0.986; in assay [3] it was 1; in [4], 0.479; in assay [5], 0.917; in assay [6], 0.97; in assay [7] it was 0.539. Besides, the “combination Emax” value in assay [8] stood at 0.977; with GAK (Melanoma), 0.272; in [9], 0.971; in [10], 0.984; in assay [11], 0.476; in [12] it was 0.186. The “combination Emax” value in the assay with SK-N-SH (Neuroblastoma) was 0.97.
With `CS(=O)(=O)CCNCc1ccc(-c2ccc3ncnc(Nc4ccc(OCc5cccc(F)c5)c(Cl)c4)c3c2)o1` [Lapatinib] + Cn1cnc2c(F)c(Nc3ccc(Br)cc3Cl)c(C(=O)NOCCO)cc21 [Selumetinib] (first compound max 10 µM, 7x7, partner max 10 µM), the Bliss excess in assay [1] worked out at 0.0641. Also, the “combination Emax” value in [2] worked out at 0.215; in assay [3], 0.988; in assay [4], 0.393; in [5], 0.389; in [6], 0.886; in assay [7], 0.318. Further, the “combination Emax” value in [8] came to 0.251; in the assay with GAK (Melanoma), 0.722; in assay [9], 0.489; in [10] it was 0.877; in [11], 0.55; in assay [12], 0.382. Also, the “combination Emax” value in the assay on SK-N-SH (Neuroblastoma) was 0.398.
For `C[C@@H](Nc1cc(F)cc(F)c1)c1cc(C(=O)N(C)C)cc2c(=O)cc(N3CCOCC3)oc12` [AZD8186] + C1CN(CCC1(C(=O)N[C@@H](CCO)C2=CC=C(C=C2)Cl)N)C3=NC=NC4=C3C=CN4 [AZD5363] (first compound max 10 µM, 7x7, partner max 10 µM), the Bliss excess in assay [1] was -0.0583. The “combination Emax” value in assay [2] was found to be 0.171; in assay [3], 0.537; in [4] it was 0.303; in [5] it was 0.834; in assay [6], 0.725; in assay [7] it was 0.215. Also, the “combination Emax” value in assay [8] came to 0.33; with GAK (Melanoma) it was 0.261; in assay [9], 0.223; in assay [10], 0.249; in assay [11], 0.589; in [12], 0.249. In addition, in the assay on SK-N-SH (Neuroblastoma), the “combination Emax” value came out at 0.364.

(Values after the supplement of paper PMC11061612.)
